Our source for the IC50 and Activity values is ChEMBL document CHEMBL3259601, “Synthesis of novel 1,2,3-triazole substituted-N-alkyl/aryl nitrone derivatives, their anti-inflammatory and anticancer activity” (Eur J Med Chem, 2014).

The subject of data set [1] is A549. The data set is described as follows: Cytotoxicity against human A549 cells assessed as growth inhibition after 24 hrs by MTT assay. It is filed as functional, cell-based. The note with it: A549, 24 h. A general note: Tetrazolium dyes change colour on reduction, which living cells bring about.
Data set [2] relates to PC-3. The data set is described as follows: Cytotoxicity against human PC3 cells assessed as growth inhibition after 24 hrs by MTT assay. It is filed as functional, cell-based. The note with it: PC-3, 24 h.
Data set [3] in a line: Antiinflammatory activity in human THP1 cells assessed as inhibition of PMA-induced IL-1beta secretion preincubated for 2 hrs followed by PMA challenge measured after 48 hrs by ELISA. Format: functional, cell-based. The note with it: THP-1. On the technique in general: In an ELISA, binding on a coated surface is turned into a signal by an enzyme label.
Data set [4] concerns COLO 205. The data set can be described thus: Cytotoxicity against human COLO205 cells assessed as growth inhibition after 24 hrs by MTT assay. Format: functional, cell-based. The note with it: COLO 205, 24 h.
For data set [5], the system named is THP-1. The data set can be described thus: Cytotoxicity against human THP1 cells assessed as effect on cell viability at 20 uM after 48 hrs by trypan blue exclusion assay. It is filed as cell-based. The note with it: thp-1, 48 h.
Data set [6] has as its system MDA-MB-231. The data set can be described thus: Cytotoxicity against human MDA-MB-231 cells assessed as growth inhibition after 24 hrs by MTT assay. Format: functional, cell-based. The note with it: MDA-MB-231, 24 h.
The subject of data set [7] is PC-3. The data set is described as follows: Induction of apoptosis in human PC3 cells assessed as activation of caspase-3 using AFC conjugated Ac-DEVD as substrate measured per mg of protein at 8 uM after 48 hrs by fluorescence assay (reference value: 2642.4 +/- 37.5 FU/min). Format: functional.
Data set [8] concerns PC-3. The data set is described as follows: Induction of apoptosis in human PC3 cells assessed as activation of caspase-3 using AFC conjugated Ac-DEVD as substrate measured per mg of protein at 8 uM after 12 hrs by fluorescence assay (reference value: 1055.6 +/- 108.2 FU/min). It is filed as functional.
Data set [9] concerns PC-3. The data set is described as follows: Induction of apoptosis in human PC3 cells assessed as activation of caspase-3 using AFC conjugated Ac-DEVD as substrate measured per mg of protein at 10 uM after 12 hrs by fluorescence assay (reference value: 1055.6 +/- 108.2 FU/min). Format: functional.
The subject of data set [10] is PC-3. The data set can be described thus: Induction of apoptosis in human PC3 cells assessed as activation of caspase-3 using AFC conjugated Ac-DEVD as substrate measured per mg of protein at 10 uM after 24 hrs by fluorescence assay (reference value: 2115.3 +/- 83.2 FU/min). It is filed as functional.
Data set [11] relates to PC-3. The data set can be described thus: Induction of apoptosis in human PC3 cells assessed as activation of caspase-3 using AFC conjugated Ac-DEVD as substrate measured per mg of protein at 8 uM after 36 hrs by fluorescence assay (reference value: 2192.3 +/- 115.9 FU/min). Format: functional.
Data set [12] relates to PC-3. The data set is described as follows: Induction of apoptosis in human PC3 cells assessed as activation of caspase-3 using AFC conjugated Ac-DEVD as substrate measured per mg of protein at 10 uM after 48 hrs by fluorescence assay (reference value: 2642.4 +/- 37.5 FU/min). It is filed as functional.
Data set [13] deals with PC-3. The data set can be described thus: Induction of apoptosis in human PC3 cells assessed as activation of caspase-3 using AFC conjugated Ac-DEVD as substrate measured per mg of protein at 8 uM after 24 hrs by fluorescence assay (reference value: 2115.3 +/- 83.2 FU/min). Format: functional.
Data set [14] relates to PC-3. The data set is described as follows: Induction of apoptosis in human PC3 cells assessed as activation of caspase-3 using AFC conjugated Ac-DEVD as substrate measured per mg of protein at 10 uM after 36 hrs by fluorescence assay (reference value: 2192.3 +/- 115.9 FU/min). Format: functional.

Each structure is given as a SMILES string. Some results are limits rather than exact numbers.

The IC50 is the concentration that inhibits the measured activity by half. On to `CCCCCCCCCCn1cc(/C=[N+](\[O-])c2ccccc2)nn1`, for which the IC50 in data set [1] was > 100 µM; in data set [2], > 100 µM; in data set [3], 9.9 µM; in data set [4], > 100 µM; in data set [6], > 100 µM. The Activity entry in [5] is on record as “Non-toxic”.
`[O-]/[N+](=C\c1cn(CCC(F)(F)C(F)(F)C(F)(F)C(F)(F)C(F)(F)C(F)(F)F)nn1)Cc1ccccc1`: the IC50 in [1] is > 100 µM; in data set [2], > 100 µM; in [3], 12.1 µM; in [4], > 100 µM; in data set [6], > 100 µM. Further, the Activity result in data set [5] is on record as “Non-toxic”.
For the compound `[O-]/[N+](=C\c1cn(-c2ccccc2)nn1)c1ccccc1`, the IC50 in data set [1] is > 100 µM; in [2], > 100 µM; in data set [3] it was 8.8 µM; in [4] it was > 100 µM; in data set [6] it was > 100 µM. Further, the Activity result in data set [5] is recorded as “Non-toxic”.
As to `[O-]/[N+](=C\c1cn(-c2ccc(C(F)(F)F)cc2)nn1)Cc1ccccc1`, the IC50 in data set [1] was > 100 µM; in data set [2], > 100 µM; in data set [3], 15.4 µM; in data set [4], > 100 µM; in data set [6], > 100 µM. In data set [5], the Activity result is reported as “Non-toxic”.
In the case of `CCCCCCCCCCn1cc(/C=[N+](\[O-])C(C)(C)C)nn1`, the IC50 was 24.8 µM in data set [1]; 19.8 µM in [2]; 20 µM in [3]; 22.1 µM in data set [4]; 20.8 µM in [6]. Besides, in data set [5], the Activity entry is recorded as “Non-toxic”.
For `[O-]/[N+](=C\c1cn(-c2ccc(F)cc2)nn1)c1ccccc1`, the IC50 in data set [1] was 12.5 µM; in [2], 11.4 µM; in data set [3] it was > 20 µM; in data set [4] it was 10.2 µM; in [6] it was 9.8 µM. In addition, the Activity entry in [5] is given as “Non-toxic”.
On to `COc1ccc(-n2cc(/C=[N+](\[O-])Cc3ccccc3)nn2)cc1`, for which the IC50 in data set [1] was > 100 µM; in data set [2], > 100 µM; in [3] it was 17.3 µM; in data set [4], > 100 µM; in data set [6], > 100 µM. In data set [5], the Activity result was “Non-toxic”.
With `COc1ccc(-n2cc(/C=[N+](\[O-])C(C)(C)C)nn2)cc1`, the IC50 is 23.7 µM in data set [1]; 23.8 µM in data set [2]; 13.5 µM in data set [3]; 19.8 µM in data set [4]; 23.1 µM in data set [6]. For the same compound, the Activity entry in data set [5] is “Non-toxic”.
Turning to `CCCCCCCCn1cc(/C=[N+](\[O-])C(C)(C)C)nn1`, the IC50 was 31.3 µM in data set [1]; 24.6 µM in data set [2]; 7.9 µM in data set [3]; 30.8 µM in data set [4]; 29.7 µM in data set [6]. Moreover, the Activity result in [5] is recorded as “Non-toxic”.
As to `CC(C)(C)/[N+]([O-])=C/c1cn(CCC(F)(F)C(F)(F)C(F)(F)C(F)(F)C(F)(F)C(F)(F)F)nn1`, the IC50 in [1] was found to be 11.5 µM; in [2], 11.2 µM; in data set [3] it was 8.1 µM; in [4] it was 9.5 µM; in [6] it was 9.8 µM. The Activity result in data set [5] is reported as “Non-toxic”.
As for `CC(C)(C)/[N+]([O-])=C/c1cn(-c2ccc(F)cc2)nn1`, the IC50 in data set [1] was found to be 87 µM; in data set [2] it was 72.1 µM; in data set [3], 14 µM; in [4], 58.9 µM; in data set [6], 66.4 µM. Further, in [5], the Activity result is reported as “Non-toxic”.
For the compound `[O-]/[N+](=C\c1cn(-c2ccc(Cl)cc2)nn1)c1ccccc1`, the IC50 was 10.5 µM in data set [1]; 11.1 µM in data set [2]; > 20 µM in data set [3]; 9.7 µM in data set [4]; 8.9 µM in [6]. For the same compound, the Activity result in [5] is “Non-toxic”.
With `CN1C(C(=O)Nc2ccccn2)=C(O)c2ccccc2S1(=O)=O` [PIROXICAM], the IC50 in data set [3] stood at 18 µM.
In the case of `CC(C)(C)/[N+]([O-])=C/c1cn(CCC(F)(F)C(F)(F)C(F)(F)C(F)(F)C(F)(F)C(F)(F)C(F)(F)C(F)(F)F)nn1`, the IC50 in [1] is 30.5 µM; in [2], 25.7 µM; in data set [3] it was 15 µM; in data set [4] it was 28.8 µM; in data set [6], 29.7 µM. Moreover, the Activity entry in data set [5] is listed as “Non-toxic”.
Turning to `[O-]/[N+](=C\c1cn(CCC(F)(F)C(F)(F)C(F)(F)C(F)(F)C(F)(F)C(F)(F)C(F)(F)C(F)(F)F)nn1)c1ccccc1`, the IC50 in data set [1] was 86.8 µM; in data set [3], 11.7 µM; in data set [4], > 100 µM; in data set [6], > 100 µM. In addition, the Activity entry in [5] is on record as “Non-toxic”.
As for `CC(C)(C)/[N+]([O-])=C/c1cn(-c2ccc(C(F)(F)F)cc2)nn1`, the IC50 turned out to be 43.6 µM in [1]; 42 µM in data set [2]; 14.4 µM in [3]; 44.7 µM in data set [4]; 48.2 µM in data set [6]. The Activity result in [5] was “Non-toxic”.
As for `CCCCCCCCn1cc(/C=[N+](\[O-])Cc2ccccc2)nn1`, the IC50 is > 100 µM in [1]; > 100 µM in [2]; 13.1 µM in data set [3]; > 100 µM in [4]; > 100 µM in data set [6]. Moreover, in [5], the Activity result is recorded as “Non-toxic”.
Turning to `CC(C)(C)/[N+]([O-])=C/c1cn(-c2ccccc2)nn1`, the IC50 in data set [1] was 17.4 µM; in [2], 15.4 µM; in data set [3], > 20 µM; in [4] it was 15.2 µM; in [6], 14.8 µM. In addition, in data set [5], the Activity result is “Non-toxic”.
Take `[O-]/[N+](=C\c1cn(CCC(F)(F)C(F)(F)C(F)(F)C(F)(F)C(F)(F)C(F)(F)C(F)(F)C(F)(F)F)nn1)Cc1ccccc1`: the IC50 was 8.8 µM in data set [1]; 8.1 µM in data set [2]; 17 µM in data set [3]; 9.4 µM in data set [4]; 8.4 µM in [6]. Moreover, the Activity was 4280.8 FU/min in data set [7]; “Non-toxic” in data set [5]; 2473.2 FU/min in data set [8]; 2541.4 FU/min in [9]; 3802.2 FU/min in data set [10]; 3396.8 FU/min in data set [11]. In addition, the Activity is listed as 4700.5 FU/min in [12], 3148.5 FU/min in data set [13] and 4082.5 FU/min in data set [14].
For the compound `CCCCCCCCCCn1cc(/C=[N+](\[O-])Cc2ccccc2)nn1`, the IC50 is > 100 µM in [1]; > 100 µM in data set [2]; 15.6 µM in data set [3]; > 100 µM in data set [4]; > 100 µM in data set [6]. Besides, the Activity result in data set [5] is recorded as “Non-toxic”.
On to `[O-]/[N+](=C\c1cn(-c2ccccc2)nn1)Cc1ccccc1`, for which the IC50 in data set [1] was > 100 µM; in [3], 8 µM; in [4] it was > 100 µM; in data set [6], > 100 µM. Moreover, in data set [5], the Activity entry is reported as “Non-toxic”.
Regarding `[O-]/[N+](=C\c1cn(-c2ccc(F)cc2)nn1)Cc1ccccc1`, the IC50 in data set [1] was > 100 µM; in [2] it was > 100 µM; in [3], 9.7 µM; in data set [4] it was > 100 µM; in [6], > 100 µM. Further, the Activity entry in data set [5] is reported as “Non-toxic”.
